{"source": "patent US10442803B2", "about": "“Tricyclic heterocycles as bet protein inhibitors” (Incyte Corporation, priority 2013, dated 2019)", "tested_on": "KMS.12.BM cells", "assay": "KMS.12.BM cell viability assay", "type": "cell-based", "settings": "72 h; KMS.12.BM human myeloma cells, 3 days, Cell Titer-GLO ATP quantitation; read-out: KMS cellular IC50", "method": "KMS.12.BM cell line (human myeloma) was purchased from JCRB (Osaka, Japan) and maintained in RPMI with 10% FBS culture medium. To measure the cytotoxic activity of the compounds through ATP quantitation, the KMS.12.BM cells are plated in the RPMI culture medium at 5000 cells/well/per 100 μL into a 96-well polystyrene clear black tissue culture plate (Greiner-bio-one through VWR, NJ), in the presence or absence of a concentration range of test compounds. After 3 days, […] Cell Titer-GLO Luminescent (Promega, Madison, Wis.) cell culture agent is added to each well for 10 minutes at room temperature to stabilize the luminescent signal. This determines the number of viable cells in culture based on quantitation of the ATP present, which signals the presence of metabolically active cells. Luminescence is measured with the Top Count 384 (Packard Bioscience through Perkin Elmer, Boston, Mass.).\nIC50 data for the Examples is presented in Table 4 as determined by Assay B1.", "note": "Where a name gives a salt, the structure may show the parent alone.", "data": [{"compound": "Cc1nnc2ccc3c(ccn3C(C)c3ccccc3)n12", "note": "(racemic) [Example 4, 1-methyl-6-(1-phenylethyl)-6H-pyrrolo[2,3-e][1,2,4]triazolo[4,3-a]pyridine]", "values": [{"measurement": "IC50", "result": "1000 to 10000", "unit": "nM"}]}, {"compound": "CCCCC(c1ccccc1)n1c(C)cc2c1ccc1nnc(C)n12", "note": "(racemic) [Example 24, 1,7-dimethyl-6-(1-phenylpentyl)-6H-pyrrolo[2,3-e][1,2,4]triazolo[4,3-a]pyridine]", "values": [{"measurement": "IC50", "result": "1000 to 10000", "unit": "nM"}]}, {"compound": "Cc1nnc2ccc3c(cc(-c4ccn(C(C)CC#N)n4)n3Cc3ccccc3)n12", "note": "(racemic) [Example 87, 3-[3-(6-benzyl-1-methyl-6H-pyrrolo[2,3-e][1,2,4]triazolo[4,3-a]pyridin-7-yl)-1H-pyrazol-1-yl]butanenitrile trifluoroacetate salt (racemate)]", "values": [{"measurement": "IC50", "result": "≤ 1000", "unit": "nM"}]}, {"compound": "Cc1nnc2ccc3c(cc(-c4ccn(CC(C)C#N)n4)n3Cc3ccccc3)n12", "note": "(racemic) [Example 88, 3-[3-(6-benzyl-1-methyl-6H-pyrrolo[2,3-e][1,2,4]triazolo[4,3-a]pyridin-7-yl)-1H-pyrazol-1-yl]-2-methylpropanenitrile trifluoroacetate salt (racemate)]", "values": [{"measurement": "IC50", "result": "≤ 1000", "unit": "nM"}]}, {"compound": "Cc1cc2c(cc(NC3CCCN(C)C3)c3nnc(C)n32)n1Cc1ccccc1", "note": "(racemic) [Example 144, 6-benzyl-1,7-dimethyl-N-(1-methylpiperidin-3-yl)-6H-pyrrolo[2,3-e][1,2,4]triazolo[4,3-a]pyridin-4-amine (racemic)]", "values": [{"measurement": "IC50", "result": "1000 to 10000", "unit": "nM"}]}, {"compound": "Cc1cc2c(cc(NC3CCN(C)C3)c3nnc(C)n32)n1Cc1ccccc1", "note": "(racemic) [Example 145, 6-benzyl-1,7-dimethyl-N-(1-methylpyrrolidin-3-yl)-6H-pyrrolo[2,3-e][1,2,4]triazolo[4,3-a]pyridin-4-amine bis(trifluoroacetate) salt (racemic)]", "values": [{"measurement": "IC50", "result": "≤ 1000", "unit": "nM"}]}, {"compound": "Cc1nnc2ccc3c(cc(-c4ncco4)n3Cc3cc(Cl)cc(CN4CCC(O)C4)c3)n12", "note": "(racemic) [Example 199, 1-(3-Chloro-5-{[1-methyl-7-(1,3-oxazol-2-yl)-6H-pyrrolo[2,3-e][1,2,4]triazolo[4,3-a]pyridin-6-yl]methyl}benzyl)pyrrolidin-3-ol bis(trifluoroacetate) salt (racemic)]", "values": [{"measurement": "IC50", "result": "≤ 1000", "unit": "nM"}]}, {"compound": "Cc1cc2c(cc(N[C@H]3CCN(C)[C@H](C)C3)c3nnc(C)n32)n1Cc1ccccc1", "note": "(racemic) [Example 225, 6-Benzyl-N-[(2R,4S)-1,2-dimethylpiperidin-4-yl]-1,7-dimethyl-6H-pyrrolo[2,3-e][1,2,4]triazolo[4,3-a]pyridin-4-amine and 6-Benzyl-N-[(2S,4R)-1,2-dimethylpiperidin-4-yl]-1,7-dimethyl-6H-pyrrolo[2,3-e][1,2,4]triazolo[4,3-a]pyridin-4-amine]", "values": [{"measurement": "IC50", "result": "≤ 1000", "unit": "nM"}]}, {"compound": "Cc1cc2c(cc(N[C@H]3CC[C@@H](C#N)CC3)c3nnc(C)n32)n1Cc1ccccc1", "note": "(single isomer, unassigned) [Example 215 b, 4-[(6-benzyl-1,7-dimethyl-6H-pyrrolo[2,3-e][1,2,4]triazolo[4,3-a]pyridin-4-yl)amino]cyclohexanecarbonitrile trifluoroacetate salt]", "values": [{"measurement": "IC50", "result": "1000 to 10000", "unit": "nM"}]}, {"compound": "Cc1nnc2ccc3c(ccn3Cc3ccccc3)n12", "note": "[Example 1, 6-benzyl-1-methyl-6H-pyrrolo[2,3-e][1,2,4]triazolo[4,3-a]pyridine]", "values": [{"measurement": "IC50", "result": "1000 to 10000", "unit": "nM"}]}, {"compound": "Cc1cc2c(ccc3nnc(C)n32)n1Cc1ccccc1", "note": "[Example 2, 6-benzyl-1,7-dimethyl-6H-pyrrolo[2,3-e][1,2,4]triazolo[4,3-a]pyridine]", "values": [{"measurement": "IC50", "result": "≤ 1000", "unit": "nM"}]}, {"compound": "Cc1cc2c(ccc3nnc(C)n32)n1S(=O)(=O)c1ccccc1", "note": "[Example 2a, 1,7-dimethyl-6-(phenylsulfonyl)-6H-pyrrolo[2,3-e][1,2,4]triazolo[4,3-a]pyridine]", "values": [{"measurement": "IC50", "result": "1000 to 10000", "unit": "nM"}]}, {"compound": "Cc1nnc2ccc3c(ccn3S(=O)(=O)c3ccccc3)n12", "note": "[Example 3, 1-methyl-6-(phenylsulfonyl)-6H-pyrrolo[2,3-e][1,2,4]triazolo[4,3-a]pyridine]", "values": [{"measurement": "IC50", "result": "1000 to 10000", "unit": "nM"}]}, {"compound": "Cc1cc2c(ccc3nnc(C)n32)n1CCc1ccccc1", "note": "[Example 6, 1,7-dimethyl-6-(2-phenylethyl)-6H-pyrrolo[2,3-e][1,2,4]triazolo[4,3-a]pyridine]", "values": [{"measurement": "IC50", "result": "1000 to 10000", "unit": "nM"}]}, {"compound": "Cc1cc2c(ccc3nnc(C)n32)n1Cc1ccccn1", "note": "[Example 7, 1,7-dimethyl-6-(pyridin-2-ylmethyl)-6H-pyrrolo[2,3-e][1,2,4]triazolo[4,3-a]pyridine]", "values": [{"measurement": "IC50", "result": "1000 to 10000", "unit": "nM"}]}, {"compound": "Cc1cc2c(ccc3nnc(C)n32)n1Cc1ccccc1Cl", "note": "[Example 8, 6-(2-chlorobenzyl)-1,7-dimethyl-6H-pyrrolo[2,3-e][1,2,4]triazolo[4,3-a]pyridine]", "values": [{"measurement": "IC50", "result": "≤ 1000", "unit": "nM"}]}, {"compound": "Cc1cc2c(ccc3nnc(C)n32)n1Cc1cccc(Cl)c1", "note": "[Example 9, 6-(3-chlorobenzyl)-1,7-dimethyl-6H-pyrrolo[2,3-e][1,2,4]triazolo[4,3-a]pyridine]", "values": [{"measurement": "IC50", "result": "≤ 1000", "unit": "nM"}]}, {"compound": "Cc1cc2c(ccc3nnc(C)n32)n1Cc1ccc(Cl)cc1", "note": "[Example 10, 6-(4-chlorobenzyl)-1,7-dimethyl-6H-pyrrolo[2,3-e][1,2,4]triazolo[4,3-a]pyridine]", "values": [{"measurement": "IC50", "result": "≤ 1000", "unit": "nM"}]}, {"compound": "Cc1cc2c(ccc3nnc(C)n32)n1Cc1cccnc1", "note": "[Example 11, 1,7-dimethyl-6-(pyridin-3-ylmethyl)-6H-pyrrolo[2,3-e][1,2,4]triazolo[4,3-a]pyridine]", "values": [{"measurement": "IC50", "result": "1000 to 10000", "unit": "nM"}]}, {"compound": "Cc1cc2c(ccc3nnc(C)n32)n1CC1CCCC1", "note": "[Example 13, 6-(cyclopentylmethyl)-1,7-dimethyl-6H-pyrrolo[2,3-e][1,2,4]triazolo[4,3-a]pyridine]", "values": [{"measurement": "IC50", "result": "1000 to 10000", "unit": "nM"}]}, {"compound": "Cc1cc2c(ccc3nnc(C)n32)n1Cc1ccccc1F", "note": "[Example 14, 6-(2-fluorobenzyl)-1,7-dimethyl-6H-pyrrolo[2,3-e][1,2,4]triazolo[4,3-a]pyridine]", "values": [{"measurement": "IC50", "result": "≤ 1000", "unit": "nM"}]}, {"compound": "Cc1cc2c(ccc3nnc(C)n32)n1Cc1cccc(F)c1", "note": "[Example 15, 6-(3-fluorobenzyl)-1,7-dimethyl-6H-pyrrolo[2,3-e][1,2,4]triazolo[4,3-a]pyridine]", "values": [{"measurement": "IC50", "result": "≤ 1000", "unit": "nM"}]}, {"compound": "Cc1cc2c(ccc3nnc(C)n32)n1Cc1ccc(F)cc1", "note": "[Example 16, 6-(4-fluorobenzyl)-1,7-dimethyl-6H-pyrrolo[2,3-e][1,2,4]triazolo[4,3-a]pyridine]", "values": [{"measurement": "IC50", "result": "≤ 1000", "unit": "nM"}]}, {"compound": "Cc1ccccc1Cn1c(C)cc2c1ccc1nnc(C)n12", "note": "[Example 17, 1,7-dimethyl-6-(2-methylbenzyl)-6H-pyrrolo[2,3-e][1,2,4]triazolo[4,3-a]pyridine]", "values": [{"measurement": "IC50", "result": "≤ 1000", "unit": "nM"}]}, {"compound": "Cc1cccc(Cn2c(C)cc3c2ccc2nnc(C)n23)c1", "note": "[Example 18, 1,7-dimethyl-6-(3-methylbenzyl)-6H-pyrrolo[2,3-e][1,2,4]triazolo[4,3-a]pyridine]", "values": [{"measurement": "IC50", "result": "≤ 1000", "unit": "nM"}]}, {"compound": "Cc1ccc(Cn2c(C)cc3c2ccc2nnc(C)n23)cc1", "note": "[Example 19, 1,7-dimethyl-6-(4-methylbenzyl)-6H-pyrrolo[2,3-e][1,2,4]triazolo[4,3-a]pyridine]", "values": [{"measurement": "IC50", "result": "≤ 1000", "unit": "nM"}]}, {"compound": "Cc1cc2c(ccc3nnc(C)n32)n1Cc1cccc(C#N)c1", "note": "[Example 20, 3-[(1,7-dimethyl-6H-pyrrolo[2,3-e][1,2,4]triazolo[4,3-a]pyridine-6-yl)methyl]benzonitrile]", "values": [{"measurement": "IC50", "result": "≤ 1000", "unit": "nM"}]}, {"compound": "Cc1cc2c(ccc3nnc(C)n32)n1Cc1ccc2ccccc2n1", "note": "[Example 21, 1,7-dimethyl-6-(quinolin-2-ylmethyl)-6H-pyrrolo[2,3-e][1,2,4]triazolo[4,3-a]pyridine]", "values": [{"measurement": "IC50", "result": "≤ 1000", "unit": "nM"}]}, {"compound": "COc1cccc(Cn2c(C)cc3c2ccc2nnc(C)n23)c1", "note": "[Example 22, 6-(3-methoxybenzyl)-1,7-dimethyl-6H-pyrrolo[2,3-e][1,2,4]triazolo[4,3-a]pyridine]", "values": [{"measurement": "IC50", "result": "≤ 1000", "unit": "nM"}]}, {"compound": "Cc1cc2c(ccc3nnc(C)n32)n1Cc1cccc(O)c1", "note": "[Example 23, 3-[(1,7-dimethyl-6H-pyrrolo[2,3-e][1,2,4]triazolo[4,3-a]pyridin-6-yl)methyl]phenol]", "values": [{"measurement": "IC50", "result": "≤ 1000", "unit": "nM"}]}, {"compound": "CC(=O)Nc1cccc(Cn2c(C)cc3c2ccc2nnc(C)n23)c1", "note": "[Example 25, N-{3-[(1,7-dimethyl-6H-pyrrolo[2,3-e][1,2,4]triazolo[4,3-a]pyridin-6-yl)methyl]phenyl}acetamide trifluoroacetate salt]", "values": [{"measurement": "IC50", "result": "≤ 1000", "unit": "nM"}]}, {"compound": "Cc1cc2c(ccc3nnc(C)n32)n1Cc1cccc(CO)c1", "note": "[Example 26, {3-[(1,7-dimethyl-6H-pyrrolo[2,3-e][1,2,4]triazolo[4,3-a]pyridin-6-yl)methyl]phenyl}methanol trifluoroacetate salt]", "values": [{"measurement": "IC50", "result": "≤ 1000", "unit": "nM"}]}, {"compound": "Cc1cc2c(ccc3nnc(C)n32)n1Cc1cccc(CN2CC(O)C2)c1", "note": "[Example 27, 1-(3-((1,7-dimethyl-6H-pyrrolo[2,3-e][1,2,4]triazolo[4,3-a]pyridin-6-yl)methyl)benzyl)azetidin-3-ol bis-trifluoroacetate salt]", "values": [{"measurement": "IC50", "result": "≤ 1000", "unit": "nM"}]}, {"compound": "Cc1cc2c(ccc3nnc(C)n32)n1Cc1cccc(CN2CCC2)c1", "note": "[Example 28, 6-[3-(azetidin-1-ylmethyl)benzyl]-1,7-dimethyl-6H-pyrrolo[2,3-e][1,2,4]triazolo[4,3-a]pyridine]", "values": [{"measurement": "IC50", "result": "≤ 1000", "unit": "nM"}]}, {"compound": "Cc1cc2c(ccc3nnc(C)n32)n1Cc1cccc(C(N)=O)c1", "note": "[Example 30, 3-((1,7-dimethyl-6H-pyrrolo[2,3-e][1,2,4]triazolo[4,3-a]pyridin-6-yl)methyl)benzamide trifluoroacetate salt]", "values": [{"measurement": "IC50", "result": "1000 to 10000", "unit": "nM"}]}, {"compound": "Cc1cc2c(ccc3nnc(C)n32)n1Cc1cccc(C(=O)NO)c1", "note": "[Example 31, 3-[(1,7-dimethyl-6H-pyrrolo[2,3-e][1,2,4]triazolo[4,3-a]pyridin-6-yl)methyl]-N-hydroxybenzamide trifluoroacetate salt]", "values": [{"measurement": "IC50", "result": "1000 to 10000", "unit": "nM"}]}]}
